Experimental data: patent US20240189201A1, “HAIR SERUM AND SUPPLEMENT” (priority 2021, published 2024)

Assay: Comparison of hair serum compositions formulated with different crystalline CBDs (type A vs type B)
Conditions: hair serum according to Example 2, differing only in the crystalline CBD used
Experimental: Two hair serum compositions are prepared according to Example 2, the only difference being that the crystalline CBD used in the formulation is either of type A (needle-like crystals; FIG. 1) or type B (bunch/cluster-like; FIG. 2).
Type A crystalline CBD is sourced from Enecta, while type B CBD is sourced from Pharma Hemp.

Which results are given for `C=C(C)[C@@H]1CCC(C)=C[C@H]1c1c(O)cc(CCCCC)cc1O` [type A CBD, Cannabidiol]?
Activity / potency of CBD in hair serum, type A versus type B: significantly more active than type B CBD; Activity / potency of CBD in hair serum, type A versus type B (listed as crystal structure A): significantly more potent than CBD with a different crystal structure
